Test system: Staphylococcus aureus α-hemolysin (α-HL) pore
Type: biochemical

How did the “capture by the pore as a function of potential polarity” value (5 µM) turn out when “Ac-RRRRRRAAAAAARRRRRR- NH 2 [CP2, control peptide construct with net charge of ~ +6 e− at both N- and C-termini at neutral pH]” was run?
Its value is “captured by the pore only for positive potentials”.

What about the “association with and block of the α-HL pore at negatively applied potential” value (pH 7.3) of the same substance?
The value was “does not associate and block”.

— paper PMC4450769, “Placement of oppositely charged aminoacids at a polypeptide termini determines the voltage-controlled braking of polymer transport through nanometer-scale pores” (Scientific Reports, 2015)
